Holding throughout (format): cell-based, human
The test system of assay [1] is keratin 10 (K10). The assay is described as follows: K10 expression promotion test (real time PCR). The note with it: 0.5 mM, 24 hours, NHEK (NB), control 1.00, GAPDH corrected. As to the method:
(§1) A normal human epidermal keratinocyte NHEK (NB) (available from KURABO INDUSTRIES LTD.) was used. The cells were precultured in HuMedia-KG2 (available from KURABO INDUSTRIES LTD.), and 1.5×10^4 cells/mL×5 mL (7.5×10^4 cells/dish) were cultured in a 60 mm laboratory dish for two days. After confirming that the cells were subconfluent, the medium was replaced by 5 mL of HuMedia-KB2 (available from KURABO INDUSTRIES LTD.). Samples were added in respective concentrations, and allowed to react for 24 hours (ET-1, K10), 48 hours (TGM1, ivl, HAS2), and 72 hours (FLG). Total RNA was extracted from the cells, reverse transcribed, and subjected to real time PCR. In the real time PCR, as target genes, endoserine-1 (ET-1; Hs00174961_m1), keratin 10 (K10; Hs01043114_g1), transglutaminase 1 (TGM1; Hs01070310_m1), involucrin (ivl; Hs00846307_s1), filaggrin (FLG; Hs00856927_g1) and hyaluronic acid synthase 2 (HAS2; Hs00193435_m1) were measured. GAPDH was used as a correction gene. Calculation was conducted by using a calibration curve method, and FAM pigment of TaqMan Gene Expression was used in primers and probes.
(§2) For each peptide or the like of Examples 1 to 13 and Comparative Examples 1 to 27, RNA expression amounts of endoserine-1 (ET-1), keratin 10 (K10), transglutaminase 1 (TGM1), involucrin (ivl), filaggrin (FLG) and hyaluronic acid synthase 2 (HAS2) were measured. Values in the tables are each average value±standard deviation, and *, ** and *** denote that they are significant with P<0.05, P<0.01, and P<0.001, respectively with respect to the control in Paired-t-test.
(In general: Real-time PCR tracks product formation cycle by cycle.)

Assay [2] concerns filaggrin (FLG). The assay is described as follows: FLG expression promotion test (real time PCR). The note with it: 0.5 mM, 72 hours, NHEK (NB), control 1.00, GAPDH corrected. As to the method:
as §1, §2

For assay [3], the system named is transglutaminase 1 (TGM1). The assay is described as follows: TGM1 expression promotion test (real time PCR). The note with it: 0.5 mM, 48 hours, NHEK (NB), control 1.00, GAPDH corrected. On the procedure:
as §1, §2

For assay [4], the system named is involucrin (ivl). The assay is described as follows: ivl expression promotion test (real time PCR). The note with it: 0.5 mM, 48 hours, NHEK (NB), control 1.00, GAPDH corrected. As to the method: as §1, §2
Assay [5] concerns endoserine-1 (ET-1). Kind of assay: ET-1 expression suppression test (real time PCR). The note with it: 0.5 mM, 24 hours, NHEK (NB), control 1.00, GAPDH corrected. On the procedure:
as §1, §2

Assay [6] relates to hyaluronic acid synthase 2 (HAS2). Kind of assay: HAS2 expression promotion test (real time PCR). The following applies: 0.5 mM, 48 hours, NHEK (NB), control 1.00, GAPDH corrected. As to the method: as §1, §2

Marks after values point to notes of the source that are not given here. Square brackets hold non-standard residues; d marks the D form. Ends that are not written are not given here. Hyp = O=C(O)[C@@H]1C[C@@H](O)CN1

With Pro-Ala-Gly [Example 4], in assay [1], the “Keratin 10 RNA expression amount” value was 3.98 ± 0.23***. In addition, the “Filaggrin RNA expression amount” value in assay [2] is reported as 5.33 ± 1.25***. For the same substance, the “Transglutaminase 1 RNA expression amount” value in assay [3] was 3.11 ± 0.02***. The “Involucrin RNA expression amount” value in assay [4] is on record as 2.75 ± 0.03***. Further, the “Endoserine-I RNA expression amount” value in assay [5] is 0.67 ± 0.01**. Besides, the “Hyaluronic acid synthase 2 RNA expression amount” value in assay [6] is 2.99 ± 1.03**.
Consider Pro-Gly [Comparative Example 4], for which the “Keratin 10 RNA expression amount” value in assay [1] was 0.89 ± 0.01*. Besides, the “Filaggrin RNA expression amount” value in assay [2] is recorded as 0.86 ± 0.18. In assay [3], the “Transglutaminase 1 RNA expression amount” value is given as 0.64 ± 0.01***. In assay [4], the “Involucrin RNA expression amount” value was 0.72 ± 0.02*. For the same substance, in assay [5], the “Endoserine-I RNA expression amount” value is 1.06 ± 0.10**. For the same substance, in assay [6], the “Hyaluronic acid synthase 2 RNA expression amount” value is on record as 0.54 ± 0.98*.
Consider Pro-Pro [Comparative Example 5], for which, in assay [1], the “Keratin 10 RNA expression amount” value turned out to be 0.98 ± 0.16. The “Filaggrin RNA expression amount” value in assay [2] is given as 0.66 ± 0.09**. The “Transglutaminase 1 RNA expression amount” value in assay [3] is reported as 0.64 ± 0.01***. Further, in assay [4], the “Involucrin RNA expression amount” value is recorded as 0.56 ± 0.04*. The “Endoserine-I RNA expression amount” value in assay [5] was 1.65 ± 0.07*. Moreover, the “Hyaluronic acid synthase 2 RNA expression amount” value in assay [6] is given as 0.78 ± 0.64*.
For the substance Pro-[Hyp]-Gly [Example 5], in assay [1], the “Keratin 10 RNA expression amount” value was 3.81 ± 0.17***. The “Filaggrin RNA expression amount” value in assay [2] is reported as 5.32 ± 0.69***. In assay [3], the “Transglutaminase 1 RNA expression amount” value is 5.36 ± 0.01***. Also, in assay [4], the “Involucrin RNA expression amount” value is 1.75 ± 0.22*. The “Endoserine-I RNA expression amount” value in assay [5] amounted to 0.53 ± 0.00. In addition, the “Hyaluronic acid synthase 2 RNA expression amount” value in assay [6] was 2.45 ± 0.90**.
In the case of Ser-[Hyp]-Gly [Example 10], the “Keratin 10 RNA expression amount” value in assay [1] is listed as 1.77 ± 0.04**. Besides, the “Filaggrin RNA expression amount” value in assay [2] is on record as 2.29 ± 0.26**. Further, in assay [3], the “Transglutaminase 1 RNA expression amount” value was determined as 1.21 ± 0.01. Moreover, the “Involucrin RNA expression amount” value in assay [4] is reported as 1.59 ± 0.05*. Moreover, the “Endoserine-I RNA expression amount” value in assay [5] is recorded as 0.89 ± 0.07*. For the same substance, the “Hyaluronic acid synthase 2 RNA expression amount” value in assay [6] is 2.14 ± 0.89*.

(Values after patent US20160082087A1, “WHITENING PROMOTING AGENT OR ATOPIC DERMATITIS AMELIORATING AGENT” (NITTA GELATIN INC., priority 2013, published 2016).)
